Measured values reported in patent US20050014811A1, “Substituted benzimidazole compounds and their use for the treatment of cancer” (Aventis Pharma S.A., priority 2001, published 2005).

What was measured:
[1] = biological target: CDK4/CyclinD1 (Homo sapiens, UniProt P11802); assay: CDK4/CyclinD1 Flashplate assay, 96-well format, biotinylated-Rb peptide substrate; assay type: biochemical
Procedure, shortened: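 Biotinylated Rb peptide bound to streptavidin Flashplate; CDK4/CyclinD1 (70 ng/well) preincubated 30 min on ice with compound at 10, 3, 1, 0.3 and 0.1 μM final. Reaction with 1 μM cold ATP plus 33P-ATP for 45 min at RT; incorporated 33P counted, duplicates.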

[2] = biological target: CDK2/CyclinE (Homo sapiens, UniProt P24941); assay: CDK2/CyclinE Flashplate assay, 96-well format, biotinylated-Rb peptide substrate; assay type: biochemical
Procedure, shortened: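 Biotinylated Rb peptide was captured on streptavidin Flashplates, and CDK2/CyclinE (200 ng/well) was preincubated 30 min on ice with inhibitor at 10, 3, 1, 0.3 or 0.1 μM final. Reactions ran 45 min at RT with 1 μM ATP plus 1 μCi ^33P-ATP. After washing, incorporated ^33P was counted, in duplicate.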

Chain of CDK4/CyclinD1 (P11802 whole entry, species assumed): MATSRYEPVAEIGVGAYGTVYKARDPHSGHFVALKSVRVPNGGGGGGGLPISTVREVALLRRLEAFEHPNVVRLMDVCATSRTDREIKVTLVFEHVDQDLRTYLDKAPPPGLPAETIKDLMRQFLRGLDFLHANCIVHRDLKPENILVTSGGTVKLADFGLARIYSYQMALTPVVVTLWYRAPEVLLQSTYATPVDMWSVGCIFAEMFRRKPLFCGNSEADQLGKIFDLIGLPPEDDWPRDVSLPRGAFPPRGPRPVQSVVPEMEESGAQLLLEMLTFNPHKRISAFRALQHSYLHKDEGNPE
Chain of CDK4/CyclinD1 (P24385 whole entry partner, species assumed): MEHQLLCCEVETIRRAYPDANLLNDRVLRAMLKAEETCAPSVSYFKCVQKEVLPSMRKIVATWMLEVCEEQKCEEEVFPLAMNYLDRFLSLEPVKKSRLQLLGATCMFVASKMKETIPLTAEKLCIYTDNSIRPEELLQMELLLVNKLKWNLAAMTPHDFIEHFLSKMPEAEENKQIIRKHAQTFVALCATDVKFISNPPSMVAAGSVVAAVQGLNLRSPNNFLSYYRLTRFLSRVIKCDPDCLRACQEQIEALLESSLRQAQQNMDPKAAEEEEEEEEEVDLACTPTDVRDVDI

Compound | IC50 [1] [nM] | IC50 [2] [nM] | inhibition at 10 µM [1] [%]
CNC(=O)Nc1nc2cc(OS(=O)(=O)c3ccc(-n4ccnc4)cc3)ccc2[nH]1 [Example 30, N-[5-(4-[imidazolyl]-phenylsulfonyloxy)-1H-benzimidazole-2-yl]-methylurea] | 1800 | 900 | 
O=C(Nc1nc2cc(OS(=O)(=O)c3ccc(-n4ccnc4)cc3)ccc2[nH]1)Nc1ccccc1F [Example 36, 4-Imidazol-1-yl-benzenesulfonic acid 2-[3-(2-fluoro-phenyl)-ureido]-1H-benzoimidazol-5-yl ester] | 770 | 530 | 
CCN(CC)CCNc1ccc(S(=O)(=O)Oc2ccc3[nH]c(NC(=O)OC)nc3c2)cc1 [Example 17, Methyl-5-(4-[2-diethylaminoethyl]aminophenyl-sulfonyloxy) benzimidazole-2-carbamate] | 6300 | 2000 | 
O=C(Nc1nc2cc(OS(=O)(=O)c3ccc(NC4CCCC4)cc3)ccc2[nH]1)Nc1ccccc1F [Example 37, 4-Cyclopentylamino-benzenesulfonic acid 2-[3-(2-fluoro-phenyl)-ureido]-1H-benzoimidazol-5-yl ester] | 570 | 450 | 
COc1ccc(NC(=O)Nc2nc3cc(OS(=O)(=O)c4ccc(NC5CCCC5)cc4)ccc3[nH]2)cc1 [Example 39, 4-Cyclopentylamino-benzenesulfonic acid 2-[3-(4-methoxy-phenyl)-ureido]-1H-benzoimidazol-5-yl ester] | 1620 | 290 | 
COCC(=O)Nc1nc2cc(OS(=O)(=O)c3ccc(NC4CCCC4)cc3)ccc2[nH]1 [Example 28, 4-Cyclopentylamino-benzenesulfonic acid 2-(2-methoxy-acetylamino)-1H-benzoimidazol-5-yl ester] | 1030 | 600 | 
COC(=O)Nc1nc2cc(OS(=O)(=O)c3ccc(NCC(=O)O)cc3)ccc2[nH]1 [Example 7, Methyl-5-(4-[N-Glycinyl]-phenylsulfonyloxy) benzimidazole-2-carbamate] | 470 | 2000 | 
COC(=O)Nc1nc2cc(OS(=O)(=O)c3ccc(NCC4CCCO4)cc3)ccc2[nH]1 (stereo not shown) [Example 18, Methyl-5-(4-[1-tetrathydrofurylmethyl]aminophenyl-sulfonyloxy) benzimidazole-2-carbamate] | 1300 | 600 | 
O=C(Nc1ccc(Cl)cc1)Nc1nc2cc(OS(=O)(=O)c3ccc(NC4CCCC4)cc3)ccc2[nH]1 [Example 40, 4-Cyclopentylamino-benzenesulfonic acid 2-[3-(4-chloro-phenyl)-ureido]-1H-benzoimidazol-5-yl ester] | 3710 | 1090 | 
CC(C)(C)OC(=O)NCC(=O)Nc1nc2cc(OS(=O)(=O)c3ccc(NC4CCCC4)cc3)ccc2[nH]1 [Example 24, 4-Cyclopentylamino-benzenesulfonic acid 2-(2-tert-butoxycarbonylamino-acetylamino)-1H-benzoimidazol-5-yl ester] | 600 | 400 | 

Next, values leading:

IC50 [1] [nM] | IC50 [2] [nM] | inhibition at 10 µM [1] [%] | Compound
170 | 13 |  | O=C(NCCCN1CCCC1=O)Nc1nc2cc(OS(=O)(=O)c3ccc(NC4CCCC4)cc3)ccc2[nH]1 [Example 58-ac, 4-Cyclopentylamino-benzenesulfonic acid 2-{3-[3-(2-oxo-pyrrolidin-1-yl)-propyl]-ureido}-1H-benzoimidazol-5-yl ester]
900 | 7 |  | CCNC(=O)Nc1nc2cc(OS(=O)(=O)c3ccc(NCC4CCCO4)cc3)ccc2[nH]1 (stereo not shown) [Example 59-j, 4-[(Tetrahydro-furan-2-ylmethyl)-amino]-benzenesulfonic acid 2-(3-ethyl-ureido)-1H-benzoimidazol-5-yl ester]
670 | 3000 |  | O=S(=O)(Oc1ccc2[nH]c(Nc3ccc(N4CCOCC4)cc3)nc2c1)c1ccc(NC2CCCC2)cc1 [Example 70-b, 4-Cyclopentylamino-benzenesulfonic acid 2-(4-morpholin-4-yl-phenylamino)-1H-benzoimidazol-5-yl ester]
240 | 30 |  | COC(=O)CCCNC(=O)Nc1nc2cc(OS(=O)(=O)c3ccc(NC4CCCC4)cc3)ccc2[nH]1 [Example 58-m, 4-{3-[5-(4-Cyclopentylamino-benzenesulfonyloxy)-1H-benzoimidazol-2-yl]-ureido}-butyric acid methyl ester]
440 | 200 |  | COC(=O)Nc1nc2cc(OS(=O)(=O)c3cccs3)ccc2[nH]1 [Example 62-b, Thiophene-2-sulfonic acid 2-methoxycarbonylamino-1H-benzoimidazol-5-yl ester]
310 | 40 |  | O=C(Nc1nc2cc(OS(=O)(=O)c3ccc(NC4CCCC4)cc3)ccc2[nH]1)N[C@H]1CC[C@H](O)CC1 [Example 58-x, 4-Cyclopentylamino-benzenesulfonic acid 2-[3-(4trans-hydroxy-cyclohexyl)-ureido]-1H-benzoimidazol-5-yl ester]
 | 300 | 90 | O=C(NCCO)Nc1nc2cc(OS(=O)(=O)c3ccc(-n4ccnc4)cc3)ccc2[nH]1 [Example 57-e, 4-Imidazol-1-yl-benzenesulfonic acid 2-[3-(2-hydroxy-ethyl)-ureido]-1H-benzoimidazol-5-yl ester]
130 | 36 |  | O=C(NCCS(=O)(=O)O)Nc1nc2cc(OS(=O)(=O)c3ccc(NCC4CCCO4)cc3)ccc2[nH]1 (stereo not shown) [Example 59-n, 4-[(Tetrahydro-furan-2-ylmethyl)-amino]-benzenesulfonic acid 2-[3-(2-sulfo-ethyl)-ureido]-1H-benzoimidazol-5-yl ester]
800 | 40 |  | O=C(Nc1nc2cc(OS(=O)(=O)c3ccc(NCC4CCCO4)cc3)ccc2[nH]1)NC1CCC1 (stereo not shown) [Example 59-o, 4-[(Tetrahydro-furan-2-ylmethyl)-amino]-benzenesulfonic acid 2-(3-cyclobutyl-ureido)-1H-benzoimidazol-5-yl ester]
500 | 15 |  | O=C(NCCCCO)Nc1nc2cc(OS(=O)(=O)c3ccc(NCC4CCCO4)cc3)ccc2[nH]1 (stereo not shown) [Example 59-d, 4-[(Tetrahydro-furan-2-ylmethyl)-amino]-benzenesulfonic acid 2-[3-(4-hydroxy-butyl)-ureido]-1H-benzoimidazol-5-yl ester]
800 | 160 |  | O=C(NCCS(=O)(=O)O)Nc1nc2cc(OS(=O)(=O)c3ccc(-n4ccnc4)cc3)ccc2[nH]1 [Example 47, 4-Imidazol-1-yl-benzenesulfonic acid 2-[3-(2-sulfo-ethyl)-ureido]-1H-benzoimidazol-5-yl ester]
 | 400 | 88 | CN(C)c1ccc(NC(=O)Nc2nc3cc(OS(=O)(=O)c4ccc(NC5CCCC5)cc4)ccc3[nH]2)cc1 [Example 49, 4-Cyclopentylamino-benzenesulfonic acid 2-[3-(4-dimethylamino-phenyl)-ureido]-1H-benzoimidazol-5-yl ester]
1800 | 220 |  | O=C(NCCN1CCCCC1)Nc1nc2cc(OS(=O)(=O)c3ccc(NCC4CCCO4)cc3)ccc2[nH]1 (stereo not shown) [Example 59-r, 4-[(Tetrahydro-furan-2-ylmethyl)-amino]-benzenesulfonic acid 2-[3-(2-piperidin-1-yl-ethyl)-ureido]-1H-benzoimidazol-5-yl ester]
